Data from patent publication US11427548B2 (Arvinas Operations, Inc., priority 2015, dated 2022).
Where two headings read alike, the source gives them in different places.

Target: T1, Androgen Receptor (Homo sapiens, UniProt P10275)
T1 construct: endogenous in cells; host or cells: VCaP cells
T1 sequence (P10275 1-920): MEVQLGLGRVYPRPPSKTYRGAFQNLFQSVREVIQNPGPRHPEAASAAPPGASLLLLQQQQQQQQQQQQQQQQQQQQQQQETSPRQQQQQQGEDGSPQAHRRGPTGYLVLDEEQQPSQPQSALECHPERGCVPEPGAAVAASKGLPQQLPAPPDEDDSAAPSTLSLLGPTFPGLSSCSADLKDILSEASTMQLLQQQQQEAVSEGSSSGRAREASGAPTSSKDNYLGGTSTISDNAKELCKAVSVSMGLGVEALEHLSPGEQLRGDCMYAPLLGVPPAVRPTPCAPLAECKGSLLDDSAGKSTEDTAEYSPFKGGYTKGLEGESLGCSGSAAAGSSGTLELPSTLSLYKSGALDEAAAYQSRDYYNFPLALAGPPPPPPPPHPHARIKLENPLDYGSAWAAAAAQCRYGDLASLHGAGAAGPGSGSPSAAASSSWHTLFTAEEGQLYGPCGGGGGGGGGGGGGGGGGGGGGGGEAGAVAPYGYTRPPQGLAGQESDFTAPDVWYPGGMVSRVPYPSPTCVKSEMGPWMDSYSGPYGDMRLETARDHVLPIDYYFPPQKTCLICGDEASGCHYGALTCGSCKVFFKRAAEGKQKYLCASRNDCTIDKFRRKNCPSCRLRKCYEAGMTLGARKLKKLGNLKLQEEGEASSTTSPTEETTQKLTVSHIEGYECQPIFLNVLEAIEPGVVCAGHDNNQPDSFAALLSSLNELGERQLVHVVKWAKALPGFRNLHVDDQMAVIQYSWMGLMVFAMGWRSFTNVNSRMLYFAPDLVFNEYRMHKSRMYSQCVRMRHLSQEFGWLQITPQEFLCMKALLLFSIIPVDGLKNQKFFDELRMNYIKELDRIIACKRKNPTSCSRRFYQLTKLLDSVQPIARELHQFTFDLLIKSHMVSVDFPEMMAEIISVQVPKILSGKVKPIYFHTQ
Assay: Androgen Receptor ELISA assay (PathScan AR ELISA) in VCaP cells: AR degradation, Dmax and DC50
Format: cell-based
Conditions: Table 36; for DC50: read-out: VCaP DC50; for Dmax: VCaP
How it was run: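 VCaP cells in phenol red-free RPMI with 5% charcoal-stripped FBS were grown at least 3 days, then given compound as 7 half-log doses in 0.1% DMSO with 0.1 nM R1881 for 24 h. Lysates went into a sandwich AR ELISA with TMB read at 450 nm.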

[1] = read-out: VCaP Dmax (%), VCaP cells
[2] = VCaP cells, read-out: VCaP Dmax (%)

| SMILES | DC50 (VCaP cells) | Dmax [1] | Dmax [2] |
| --- | --- | --- | --- |
| Cc1ncsc1-c1ccc([C@H](C)NC(=O)[C@@H]2C[C@@H](F)CN2C(=O)[C@@H](NC(=O)COCCN2CCN(c3ccc(C(=O)N[C@H]4C(C)(C)[C@H](Oc5ccc(C#N)c(Cl)c5)C4(C)C)cn3)CC2)C(C)(C)C)cc1 [Example 720, N-((1r,3r)-3-(3-chloro-4-cyanophenoxy)-2,2,4,4-tetramethylcyclobutyl)-6-(4-(2-(2-(((S)-1-((2S,4R)-4-fluoro-2-(((S)-1-(4-(4-methylthiazol-5-yl)phenyl)ethyl)carbam-oyl)pyrrolidin-1-yl)-3,3-dimethyl-1-oxobutan-2-yl)amino)-2-oxoethoxy)ethyl)pipera-zin-1-yl)nicotinamide] | > 501 nM | < 25% |  |
| Cc1ncsc1-c1ccc([C@H](C)NC(=O)[C@@H]2C[C@H](F)CN2C(=O)[C@@H](NC(=O)COCCN2CCN(c3ccc(C(=O)N[C@H]4C(C)(C)[C@H](Oc5ccc(C#N)c(Cl)c5)C4(C)C)cn3)CC2)C(C)(C)C)cc1 [Example 721, N-((1r,3r)-3-(3-chloro-4-cyanophenoxy)-2,2,4,4-tetramethylcyclobutyl)-6-(4-(2-(2-(((S)-1-((2S,4S)-4-fluoro-2-(((S)-1-(4-(4-methylthiazol-5-yl)phenyl)ethyl)carbam-oyl)pyrrolidin-1-yl)-3,3-dimethyl-1-oxobutan-2-yl)amino)-2-oxoethoxy)ethyl)pipera-zin-1-yl)nicotinamide] | > 501 nM | < 25% |  |
| CC(C)C[C@H](OCCN1CCN(c2ccc(C(=O)N[C@H]3C(C)(C)[C@H](Oc4ccc(C#N)c(Cl)c4)C3(C)C)cn2)CC1)C(=O)N[C@@H](C)C(=O)N1C[C@H](O)C[C@H]1C(=O)NCc1ccc(Cl)cc1 [Example 722, N-((1r,3r)-3-(3-chloro-4-cyanophenoxy)-2,2,4,4-tetramethylcyclobutyl)-6-(4-(2-(((S)-1-(((S)-1-((2S,4R)-2-((4-chlorobenzyl)carbamoyl)-4-hydroxypyrrolidin-1-yl)-1-oxopropan-2-yl)amino)-4-methyl-1-oxopentan-2-yl)oxy)ethyl)piperazin-1-yl)nicotinamide] | > 501 nM | < 25% |  |
| Cc1ncsc1-c1ccc([C@H](C)NC(=O)C2C[C@@H](O)CN2C(=O)C(NC(=O)CN2CCN(CCCCc3ccc(C(=O)N[C@H]4C(C)(C)[C@H](Oc5ccc(C#N)c(C(F)(F)F)c5)C4(C)C)cc3)CC2)C(C)(C)C)cc1 (stereo partly drawn) [Example 723, (2S,4R)-1-((S)-2-(2-(4-(4-(4-(((1r,3r)-3-(4-cyano-3-(trifluoromethyl)phenoxy)-2,2,4,4-tetramethylcyclobutyl)carbamoyl)phenyl)butyl)piperazin-1-yl)actamido)-3,3-dimethylbutanoyl)-4-hydroxy-N-((S)-1-(4-(4-methylthiazol-5-yl)phenyl)ethyl)pyrrolidine-2-carboxamide] | < 50 nM |  | > 71% |
| Cc1ncsc1-c1ccc([C@H](C)NC(=O)[C@@H]2CCCN2C(=O)[C@@H](NC(=O)CN2CCN(CCCc3ccc(C(=O)N[C@H]4C(C)(C)[C@H](Oc5ccc(C#N)c(C(F)(F)F)c5)C4(C)C)cc3)CC2)C(C)(C)C)cc1 [Example 724, (S)-1-((S)-2-(2-(4-(3-(4-(((1r,3r)-3-(4-cyano-3-(trifluoromethyl)phenoxy)-2,2,4,4-tetramethylcyclobutyl)carbamoyl)phenyl)propyl)piperazin-1-yl)acetamido)-3,3-dimethylbutanoyl)-N-((S)-1-(4-(4-methylthiazol-5-yl)phenyl)ethyl)pyrrolidine-2-carboxamide] | > 501 nM |  | < 25% |
| Cc1ncsc1-c1ccc([C@H](C)NC(=O)[C@@H]2CC(F)(F)CN2C(=O)[C@@H](NC(=O)COCCN2CCN(c3ccc(C(=O)N[C@H]4C(C)(C)[C@H](Oc5ccc(C#N)c(Cl)c5)C4(C)C)cn3)CC2)C(C)(C)C)cc1 [Example 725, N-((1r,3r)-3-(3-chloro-4-cyanophenoxy)-2,2,4,4-tetramethylcyclobutyl)-6-(4-(2-(2-(((S)-1-((S)-4,4-difluoro-2-(((S)-1-(4-(4-methylthiazol-5-yl)phenyl)ethyl)carbam-oyl)pyrrolidin-1-yl)-3,3-dimethyl-1-oxobutan-2-yl)amino)-2-oxoethoxy)ethyl)pipera-zin-1-yl)nicotinamide] | > 501 nM |  | < 25% |
| CC(C)C[C@H](OCCN1CCN(c2ccc(C(=O)N[C@H]3C(C)(C)[C@H](Oc4ccc(C#N)c(Cl)c4)C3(C)C)cn2)CC1)C(=O)N[C@H](C(=O)N1C[C@H](O)C[C@H]1C(=O)NCc1ccc(Cl)cc1)C(C)C [Example 726, N-((1r,3r)-3-(3-chloro-4-cyanophenoxy)-2,2,4,4-tetramethylcyclobutyl)-6-(4-(2-(((S)-1-(((S)-1-((2S,4R)-2-((4-chlorobenzyl)carbamoyl)-4-hydroxypyrrolidin-1-yl)-3-methyl-1-oxobutan-2-yl)amino)-4-methyl-1-oxopentan-2-yl)oxy)ethyl)piperazin-1-yl)nicotinamide] | > 501 nM |  | < 25% |
| CC(C)C[C@H](OCCN1CCN(c2ccc(C(=O)N[C@H]3C(C)(C)[C@H](Oc4ccc(C#N)c(Cl)c4)C3(C)C)cn2)CC1)C(=O)N[C@H](C(=O)N1C[C@H](O)C[C@H]1C(=O)NCc1ccc(Cl)cc1)C(C)(C)C [Example 727, N-((1r,3r)-3-(3-chloro-4-cyanophenoxy)-2,2,4,4-tetramethylcyclobutyl)-6-(4-(2-(((S)-1-(((S)-1-((2S,4R)-2-((4-chlorobenzyl)carbamoyl)-4-hydroxypyrrolidin-1-yl)-3,3-dimethyl-1-oxobutan-2-yl)amino)-4-methyl-1-oxopentan-2-yl)oxy)ethyl)piperazin-1-yl)nicotinamide] | > 501 nM |  | < 25% |
| Cc1ncsc1-c1ccc([C@H](C)NC(=O)[C@@H]2C[C@@H](O)CN2C(=O)[C@@H](NC(=O)OC(C)(C)C)[C@@H](C)OCCCN(C)CCc2ccc(C(=O)N[C@H]3C(C)(C)[C@H](Oc4ccc(C#N)c(Cl)c4)C3(C)C)cc2)cc1 [Example 729, tert-butyl ((2S,3R)-3-(3-((4-(((1r,3r)-3-(3-chloro-4-cyanophenoxy)-2,2,4,4-tetramethylcyclobutyl)carbamoyl)phenethyl)(meth-yl)amino)propoxy)-1-((2S,4R)-4-hydroxy-2-(((S)-1-(4-(4-methylthiazol-5-yl)phenyl)ethyl)carbam-oyl)pyrrolidin-1-yl)-1-oxobutan-2-yl)carbamate] | > 501 nM |  | < 25% |
| Cc1ncsc1-c1ccc(C(C)NC(=O)[C@@H]2C[C@@H](O)CN2C(=O)[C@@H](N)[C@@H](C)OCCCN(C)CCc2ccc(C(=O)N[C@H]3C(C)(C)[C@H](Oc4ccc(C#N)c(Cl)c4)C3(C)C)cc2)cc1 (stereo partly drawn) [Example 730, (2S,4R)-1-(O-(3-((4-(((1r,3r)-3-(3-chloro-4-cyanophenoxy)-2,2,4,4-tetramethylcyclobutyl)carbamoyl)phenethyl)(meth-yl)amino)propyl)-L-threonyl)-4-hydroxy-N-((S)-1-(4-(4-methylthiazol-5-yl)phenyl)ethyl)pyrrolidine-2-carboxamide] | > 501 nM |  | < 25% |
| CC(C)[C@H](OCCN1CCN(c2ccc(C(=O)N[C@H]3C(C)(C)[C@H](Oc4ccc(C#N)c(Cl)c4)C3(C)C)cn2)CC1)C(=O)N[C@@H](C)C(=O)N1C[C@H](O)C[C@H]1C(=O)NCc1ccc(Cl)cc1 [Example 731, N-((1r,3r)-3-(3-chloro-4-cyanophenoxy)-2,2,4,4-tetramethylcyclobutyl)-6-(4-(2-(((S)-1-(((S)-1-((2S,4R)-2-((4-chlorobenzyl)carbamoyl)-4-hydroxypyrrolidin-1-yl)-1-oxopropan-2-yl)amino)-3-methyl-1-oxobutan-2-yl)oxy)ethyl)piperazin-1-yl)nicotinamide] | > 501 nM |  | < 25% |
| Cc1ncsc1-c1ccc(CNC(=O)[C@@H]2C[C@@H](O)CN2C(=O)[C@H](C(C)C)N2Cc3ccccc3C2=O)c(OCCN2CCN(c3ccc(C(=O)N[C@H]4C(C)(C)[C@H](Oc5ccc(C#N)c(Cl)c5)C4(C)C)cn3)CC2)c1 [Example 732, N-((1r,3r)-3-(3-chloro-4-cyanophenoxy)-2,2,4,4-tetramethylcyclobutyl)-6-(4-(2-(2-(((2S,4R)-4-hydroxy-1-((S)-3-methyl-2-(1-oxoisoindolin-2-yl)butanoyl)pyrrolidine-2-carboxamido)methyl)-5-(4-methylthiazol-5-yl)phenoxy)ethyl)piper-azin-1-yl)nicotinamide] | < 50 nM |  | > 71% |
